From patent US5359073A, “Substituted-phenyl (N,N'-cycloalkyl/alkyl carboxamide)-1H/3H-imidazo[4,5-b]pyridine compounds as PAF antagonists” (G. D. Searle & Co., priority 1992, dated 1994) come the findings set out here.

The target of assay [1] is T1, PAF receptor (human platelet membrane) (Homo sapiens, UniProt P25105).
T1 construct: The platelets were broken by freezing in a dry ice-ethanol bath; tissue Lifesource, Inc. (Glenview, Ill.); host or cells: human packed platelets (membrane preparation)
The experiment in a line: Assay A: Human Platelet Receptor Binding (inhibition of specific [^3 H]PAF binding to human platelet membrane preparation). Particulars: human platelet membranes, 0.75 nM [^3 H]PAF, 30 minutes at 24° C., pH 7.4. The protocol:
Compounds of the invention were evaluated for their ability to inhibit specific binding of [^3 H]PAF to human platelet membrane preparation. Human packed platelets were obtained from Lifesource, Inc. (Glenview, Ill.) and washed 3 times with 10 mM Trizma pH 7.0, 2 mM EDTA (dipotassium salt), 150 mM KCL and then once with 10 mM Trizma 7.4, 20 mM CaCL2. The platelets were broken by freezing in a dry ice-ethanol bath, followed by thawing in 24° C. water baths. The preparation was centrifugation (40,000 x g, 20 minutes, 4° C.) and the pellet resuspended in 10 mM Trizma 7.4, 20 mM CaCL2, 5 mg/ml human albumin. Protein concentration in the platelet membrane preparation was determined by the Lowry method [ref]. Aliquots of the membrane preparation were stored at -70° C. Each preparation was characterized for PAF receptor number and dissociation constant (Kd). In binding assays 5 μl of test compound, solubilzed in DMSO, was added to polypropylene tubes along with 0.75 nM [^3 H]PAF and 200 mcl [0.075 nM] of membranes and 95 μl 10 mM Trizma 7.4, 20 mM CaCL2, 5 mg/ml human albumin. Tubes were incubated for 30 minutes at 24° C. The incubation was terminated by adding 4 ml of ice-cold 10 mM Trizma DH 7.4, 20 mM CaCL2 and 20 mg/ml BSA prior to vacuum filtration using Whatman GF/C filters. Filters were prepared and counted for a scintillation counter. All DPM values were corrected for background and isotope decay. Triplicate determinations for single doses were averaged. The amount of non-specific binding was subtracted from all dose averages, giving an amount of specific binding in all cases. The IC50 values for compounds of the invention determined by the Allfit program using percent displacement data. Allfit is a `basic` computer program for simultaneous curve fitting of a family of signoidal dose-response curves using the four parameter logistic equation.

The test system of assay [2] is PAF-induced aggregation of human platelets. The experiment in a line: Assay B: Human Platelet Aggregation Inhibition (PAF-induced aggregation in human platelet-rich plasma). It counts as cell-based. Particulars: 37°. As to the method:
Compounds of the invention were evaluated for their ability to inhibit PAF-induced aggregation of human platelets in a human-platelet-rich plasma. Venous blood was collected from donors who fasted for 8 hours and were instructed not to use antiinflammatory drugs for 2 weeks prior to blood draw. Blood was collected into syringes containing 0.1 ml of 3.8% [w/v] citrate and centrifuged in polypropylene tubes at 150xg for 20 minutes at room temperature. The platelet rich plasma [PRP] was collected and let sit for 20 minutes at room temperature. Platelet activating factor [PAF] was diluted in 0.9% NaCl with 0.25% bovine serum albumin. Silicon treated cuvettes with stir bars were placed in the 37° heating block of the platelet aggregometer [Bio/Data Corporation, Platelet Aggregation Profiler, Model PAP-4]. PRP and test compound were added to cuvettes and aggregation monitored for 10-15 seconds at 37° with stirring. PAF was added and aggregation monitored for an additional 3 minutes. Peak aggregation was considered the peak of the first aggregation wave usually 45-60 seconds after PAF addition. Inhibition of aggregation was determined by the following: 1-[(% aggregation in the presence of compound).div.(% maximal aggregation)]. A log/logit transformation was used to determine half maximal inhibitory concentration of a test compound [IC50 ].

In assay [3] the target is T2, [^3 H]PAF receptors on human neutrophil membrane (Homo sapiens, UniProt P25105).
T2 construct: Human neutrophils were isolated from venous blood by dextran sedimentation; from tissue; host or cells: human neutrophils from venous blood (membrane preparation)
The experiment in a line: Assay C: Human Neutrophil Receptor Binding (inhibition of specific [^3 H]PAF binding to human neutrophil membrane). The conditions noted are these: human neutrophil membranes, 0.9 nM [^3 H]PAF, 30 minutes at 24°, pH 7.4. As to the method: Compounds of the invention were evaluated for their ability to inhibit PAF-induced specific binding of [^3 H]PAF to receptors on human neutrophil membrane. Human neutrophils were isolated from venous blood by dextran sedimentation followed by density gradient centrifugation using Ficoll-Hypaque [J. Biol. Chem., 254:7865-7869, 1979]. Residual red blood cells were removed by hypotonic lysis. Neutrophils were suspended in 50 mM Tris-HCl buffer, pH 7.7, and cells disrupted by sonication for 15 seconds on ice. Unbroken cells and nuclei were removed by slow speed centrifugation [1000xg, 10 min. 4°]. The resultant supernatant was centrifuged at 100,000xg for 60 minutes at 4°. The pellet was suspended in 10 mM Tris-HCl, pH 7.4, with 10 mM MgCl2. Protein content was determined by the method of Lowry [J. Biol. Chem., 193:265-275, 1951]. Membranes were characterized for the concentration of binding sites [Bmax] and affinity for the ligand [Kd] using [^3 H]PAF by Scatchard analysis. Binding assays were conducted by incubating 50 mcg of membranes with 0.9 nM [^3 H]PAF and test compounds in 10 mM Tris-HCl buffer, pH 7.4, containing 0.1% bovine serum albumin. Nonspecific binding was determined by the addition of 1 μM PAF. Binding assay were done for 30 minutes at 24°. The assay was terminated by filtration-through a Whatman GF/C glass filters and radioactivity determined by liquid scintillation counting.

Structures are written as SMILES.

T1 sequence (P25105 whole entry): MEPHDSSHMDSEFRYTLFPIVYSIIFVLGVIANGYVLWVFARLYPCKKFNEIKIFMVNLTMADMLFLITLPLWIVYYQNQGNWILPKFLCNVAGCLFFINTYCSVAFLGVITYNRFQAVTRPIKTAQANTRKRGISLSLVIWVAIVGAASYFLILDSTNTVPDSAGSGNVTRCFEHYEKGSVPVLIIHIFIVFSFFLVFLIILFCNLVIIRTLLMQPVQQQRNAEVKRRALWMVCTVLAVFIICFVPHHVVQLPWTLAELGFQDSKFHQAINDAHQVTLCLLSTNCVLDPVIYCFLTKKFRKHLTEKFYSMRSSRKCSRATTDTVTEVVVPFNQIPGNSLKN
T2 sequence (P25105 whole entry): as above

In the case of `COc1cc(Cn2cnc3cccnc32)ccc1C(=O)N(C(C)C)C1CCCCC1` [Example 3, N-cyclohexyl-4-(3H-imidazo[4,5-b]pyridin-3-ylmethyl)-2-methoxy-N-(1-methylethyl)benzamide], the IC50 (usually the point on the concentration scale where inhibition reaches its midpoint) in assay [1] was 2 nM; in assay [2], 7 nM; in assay [3] it was 0.5 nM.
